{"source": "patent US20040120985A1", "about": "“Food product for increasing the cognitive functional capacity” (priority 2001, published 2004)", "origin": "cited, not measured here", "key": {"[1]": {"conditions": "oral administration"}, "[2]": {"tested_on": "cognitive functional capacity", "conditions": "individuals older than 40 years, 100 mg to 300 mg per day"}, "aging brain": {"tested_on": "aging brain", "conditions": "animal experimental studies"}}}
{"substance": "phosphatidyl serine", "values": [{"measurement": "bioavailability", "setting": "[1]", "result": "good"}, {"measurement": "passage of the blood-brain barrier", "setting": "[1]; after passing through the liver", "result": "crosses the blood-brain barrier"}, {"measurement": "cognitive functional capacity", "setting": "[2]", "result": "increased"}, {"measurement": "ATPase-dependent ion transport via the cell membrane", "setting": "aging brain", "result": "improves the ATPase-dependent ion transport via the cell membrane"}, {"measurement": "age-related breakdown of the receptors for the nerve growth factor", "setting": "aging brain", "result": "partially prevents the age-related breakdown of the receptors for the nerve growth factor"}, {"measurement": "cholesterol/phospholipid ratio in the aging brain", "setting": "aging brain", "result": "normalizes the cholesterol/phospholipid ratio in the aging brain"}, {"measurement": "neuron atrophy", "setting": "aging brain", "result": "protects against neuron atrophy"}, {"measurement": "protein kinase C balance", "setting": "aging brain", "result": "normalizes the protein kinase C balance"}, {"measurement": "formation of nerve growth factors", "setting": "aging brain; effect not identified for other phospholipids", "result": "promotes the formation of nerve growth factors"}]}
